Assay results reported in patent US8461206B2, “Use of at least one (dihydro)jasmonic acid derivative for treating dry skin” (L'Oreal, priority 2003, dated 2013).

Experiments:
Type in all cases: cell-based
[1] = test system: immortalized human sebocytes derived from the SZ95 line; assay: cell viability (LDH) assay; conditions: in parallel to the lipogenesis test
[2] = test system: immortalized human sebocytes derived from the SZ95 line; assay: cell proliferation (MUH) assay; conditions: in parallel to the lipogenesis test
[3] = test system: immortalized human sebocytes derived from the SZ95 line; assay: lipogenesis in immortalized human sebocytes in culture (Nile Red fluorescence); conditions: 10^-4 M, 0.1% DMSO, treatment for 48 hours, Nile Red 1 μg/ml, cells at confluence, p<0.001
Description: Methyl dihydrojasmonate (provided by BEDOUKIAN) was tested on a model of immortalized human sebocytes in culture, derived from the SZ95 line described in Zouboulis, C. C., Seltmann, H., Neitzel, H. & Orfanos, C. E., Establishment and Characterization of an Immortalized Human Sebaceous Gland Cell Line, J. Invest. Dermatol., 113, 1011-1020 (1999).
The test consisted in measuring the amount of lipids produced by the sebocytes of the line (at confluence), in the presence or absence of active agent diluted in DMSO, such that the final amount of DMSO in the culture medium was 0.1% and the amount of methyl dihydrojasmonate was 10^−4 M. After treatment for 48 hours, the adherent cells were treated with Nile Red (1 μg/ml). The lipid content was then quantified by measuring the fluorescence of the dye (two excitation/emission couples: 485-540 nm for the neutral lipids and 540-620 nm for the normeutral lipids). The results were given for the total lipids (combination of the two measurements).
The experiment was carried out in sextuplicate (assayed products and control) in a 96-well plate, and repeated four times.

CCCCCC1C(=O)CCC1CC(=O)OC (stereo not drawn) [methyl dihydrojasmonate]
modification of cell viability (LDH) [1]: not related to a modification | modification of cell proliferation (MUH) [2]: not related to a modification | increase in amount of neutral lipids synthesized by the sebocytes compared to the untreated control [3]: 98%
